Data: patent US10882838B2, “Cannabinergic compounds and uses thereof” (Northeastern University, priority 2012, dated 2021)
Where two headings read alike, the source gives them in different places.

Legend:
[1] = Stability in plasma (half-life); type: in vitro ADME, rat or monkey; settings: method: 200 μM in plasma, 37°; species of plasma not given
Method: The designed compounds carry a side chain that is susceptible to plasma esterase activity, inviting their rapid deactivation. Thus, it is important to characterize the rate of compound metabolism in isolated rat or monkey plasma. As a preliminary predictor of oral stability, this assay will also be done in buffers at pH 2 (to emulate the stomach) and pH 7.4 (physiological pH). Compounds (10 mM in DMSO) are diluted in plasma, acetonitrile or buffer to a concentration of 200 μM and incubated in a 37° shaking water bath for 2 hours. Samples are taken periodically, diluted 1:4 with acetonitrile and centrifuged to precipitate protein. The resulting supernatant is analyzed by HPLC to predict expected in vivo plasma half-lives.

CB1 receptor = CB1 receptor (Rattus norvegicus (Rat), UniProt P20272); test: rCB1 competition-equilibrium binding with [3H]CP-55,940, rat brain membranes
Method: Frozen rat brains (CB1 source) are obtained from Pel-Freeze Biologicals (Rogers, Ak.) and stored at −80° C. until use. Membranes are prepared according to the method described by Dodd et al. and used in our laboratory as reported.
(§1) All the cannabinoids discussed in this invention are tested for their ability to bind to CB1 and CB2 receptors using membranes from rat brain or HEK293 cells expressing either mCB2 or hCB2, respectively via competition-equilibrium binding using [^3H]CP-55,940. Results are analyzed using nonlinear regression to determine ligand IC50 (Prism by GraphPad Software, Inc.), and Ki values are calculated from the IC50. IC50 and Ki values are determined from at least three independent experiments.

mCB2 receptor = mCB2 receptor (Mus musculus (Mouse), UniProt P47936); test: mCB2 competition-equilibrium binding with [3H]CP-55,940, membranes of HEK293 cells expressing mCB2
Method: (§2) HEK293 cells expressing hCB1 or hCB2 or mCB2 receptor are used for membrane preparations according to Abadji et al. The resulting pellet is resuspended in 10 mM Tris-chloride, pH 7.4, with 5 mM MgCl2 and 2 mM EDTA (TME), rapidly frozen in liquid nitrogen and stored at −80° C. for no longer than two months. Protein content is assayed by using the Bio-Rad protein assay according to the manufacturer's protocol.
as §1

hCB2 receptor = hCB2 receptor (Homo sapiens (Human), UniProt P34972); test: hCB2 competition-equilibrium binding with [3H]CP-55,940, membranes of HEK293 cells expressing hCB2
Method: as §2, §1

[2] = rat brain membranes, [3H]CP-55,940, read-out: rCB1 Ki
[3] = HEK293 cells expressing mCB2, [3H]CP-55,940, read-out: mCB2 Ki
[4] = HEK293 cells expressing hCB2, [3H]CP-55,940, read-out: hCB2 Ki

SMILES | half-life at 200 μM [1] [min] | Ki (CB1 receptor; [2]) [nM] | Ki (mCB2 receptor; [3]) [nM] | Ki (hCB2 receptor; [4]) [nM] | Ki (CB1 receptor) [nM] | Ki (mCB2 receptor) [nM] | Ki (hCB2 receptor) [nM]
CC1=CC[C@@H]2[C@@H](C1)c1c(O)cc(C3(C(=O)OCCCCC#N)CCC3)cc1OC2(C)C [Compound 1.19, 4-cyanobutyl 1-((6aR,10aR)-1-hydroxy-6,6,9-trimethyl-6a,7,10,10a-tetrahydro-6H-benzo[c]chromen-3-yl)cyclo butanecarboxylate] | 107 | 0.9 | 1.5 | 1.8 |  |  | 
CC(C)(C(=O)OCCCCn1ccnc1)c1cc(O)c2c(c1)OC(C)(C)[C@@H]1CC=C(CO)C[C@@H]21 [Compound 2.3, 4-(1H-imidazol-1-yl)-butyl-2-((6aR,10aR)-6a,7,10,10a-tetrahydro-1-hydroxy-9-(hydroxymethyl)-6,6-dimethyl-6H-benzo[c]chromen-3-yl)-2-methylpropanoate] | 120 | 25.3 | 11.6 | 8.7 |  |  | 
CC1=CC[C@@H]2[C@@H](C1)c1c(O)cc(C(C)(C)C(=O)OCCCCn3ccnc3)cc1OC2(C)C [Compound 1.6, 4-(1H-imidazol-1-yl)butyl 2-((6aR,10aR)-6a,7,10,10a-tetrahydro-1-hydroxy-6,6,9-trimethyl-6H-benzo[c]chromen-3-yl)-2-methylpropanoate] | 120 | 29.1 | 11.6 | 8.7 |  |  | 
CCCCCCC(C)(C)c1cc(O)c2c(c1)OC(C)(C)[C@@H]1CCC(=O)OC[C@@H]21 [Compound 3.10, (5aR,11bR)-11-hydroxy-6,6-dimethyl-9-(2-methyloctan-2-yl)-4,5,5a,6-tetrahydro-1H-oxepino[4,3-c]chromen-3(11bH)-one] | 15 |  |  |  |  |  | 
CCCCOC(=O)[C@@H](C)c1cc(O)c2c(c1)OC(C)(C)[C@@H]1CC=C(C)C[C@@H]21 [Compound 1.16, (S)-butyl 2-((6aR,10aR)-1-hydroxy-6,6,9-trimethyl-6a,7,10,10a-tetrahydro-6H-benzo[c]chromen-3-yl)propanoate] | 6 | 2.4 | 1.3 | 1.5 |  |  | 
CC1=CC[C@@H]2[C@@H](C1)c1c(O)cc(C(C)(C)C(=O)OCCCN3CCOCC3)cc1OC2(C)C [Compound 1.25, 3-morpholinopropyl 2-((6aR,10aR)-1-hydroxy-6,6,9-trimethyl-6a,7,10,10a-tetrahydro-6H-benzo[c]chromen-3-yl)-2-methylpropanoate] | 200 |  |  |  | 15.2 | 10.4 | 8.7
CCCCOC(=O)[C@H](C)c1cc(O)c2c(c1)OC(C)(C)[C@@H]1CC=C(C)C[C@@H]21 [Compound 1.14, (R)-butyl 2-((6aR,10aR)-1-hydroxy-6,6,9-trimethyl-6a,7,10,10a-tetrahydro-6H-benzo[c]chromen-3-yl)propanoate] | 7 | 0.9 | 1.4 | 1.4 |  |  | 
CC1=CC[C@@H]2[C@@H](C1)c1c(O)cc(CC(=O)OCCCCBr)cc1OC2(C)C [Compound 1.27, 4-bromobutyl-2-((6aR,10aR)-6a,7,10,10a-tetrahydro-1-hydroxy-6,6,9-trimethyl-6H-benzo[c]chromen-3-yl)acetate] | 3 | 2.2 | 11.6 | 7.1 |  |  | 
CCCCOC(=O)Cc1cc(O)c2c(c1)OC(C)(C)[C@@H]1CC=C(C)C[C@@H]21 [Compound 1.29, Butyl-2-((6aR,10aR)-6a,7,10,10a-tetrahydro-1-hydroxy-6,6,9-trimethyl-6H-benzo[c]chromen-3-yl)acetate] | 5 | 40.3 | 27 | 8.2 |  |  | 
CCCCOC(=O)C(C)(C)c1cc(O)c2c(c1)OC(C)(C)[C@@H]1CC[C@@H](O)C[C@@H]21 [Compound 3.6, Butyl-2-((6aR,9R,10aR)-6a,7,8,9,10,10a-hexahydro-1,9-dihydroxy-6,6-dimethyl-6H-benzo[c]chromen-3-yl)-2-methylpropanoate] | 3 | 0.1 | 0.2 | 0.2 |  |  | 
CC1=CC[C@@H]2[C@@H](C1)c1c(O)cc(C(C)(C)C(=O)OCCCn3ccnc3)cc1OC2(C)C [Compound 1.10, 3-(1H-imidazol-1-yl)propyl-2-((6aR,10aR)-6a,7,10,10a-tetrahydro-1-hydroxy-6,6,9-trimethyl-6H-benzo[c]chromen-3-yl)-2-methylpropanoate] | 240 | 3.4 | 2 | 1.2 |  |  | 
CCCCCCC(O)(CC(=O)O)c1cc(O)c2c(c1)OC(C)(C)[C@@H]1CC=C(C)C[C@@H]21 (stereo partly drawn) [Compound 1.22, 3-hydroxy-3-((6aR,10aR)-1-hydroxy-6,6,9-trimethyl-6a,7,10,10a-tetrahydro-6H-benzo[c]chromen-3-yl)nonanoic Acid] |  | 600 | 1000 | 1000 |  |  | 
CC1=CC[C@@H]2[C@@H](C1)c1c(O)cc(C(C)(C)C(=O)OCCCBr)cc1OC2(C)C [Compound 1.7, 3-bromopropyl-2-((6aR, 10aR)-6a, 7, 10, 10a-tetrahydro-1-hydroxy-6,6,9-trimethyl-6H-benzo[c]chromen-3-yl)-2-methylpropanoate] |  | 0.8 | 1.1 | 0.6 |  |  | 
CCOC(=O)C(C)(C)c1cc(O)c2c(c1)OC(C)(C)[C@@H]1CC=C(C)C[C@@H]21 [Compound 1.35, Ethyl-2-((6aR,10aR)-6a,7,10,10a-tetrahydro-1-hydroxy-6,6,9-trimethyl-6H-benzo[c]chromen-3-yl)-2-methylpropanoate] |  | 2.7 | 0.5 | 1.5 |  |  | 
CC1=CC[C@@H]2[C@@H](C1)c1c(O)cc(C(C)(C)C(=O)OCCCC#N)cc1OC2(C)C [Compound 1.8, 3-cyanopropyl-2-((6aR,10aR)-6a,7,10,10a-tetrahydro-1-hydroxy-6,6,9-trimethyl-6H-benzo[c]chromen-3-yl)-2-methylpropanoate] |  | 0.5 | 0.7 | 1.4 |  |  | 
CC1=CC[C@@H]2[C@@H](C1)c1c(O)cc(C(C)(C)C(=O)OCCBr)cc1OC2(C)C [Compound 1.36, 2-bromoethyl-2-((6aR,10aR)-6a,7,10,10a-tetrahydro-1-hydroxy-6,6,9-trimethyl-6H-benzo [c]chromen-3-yl)-2-methylpropanoate] |  | 2.9 | 3.2 | 7.7 |  |  | 
CC1=CC[C@@H]2[C@@H](C1)c1c(O)cc(C(C)C(=O)O)cc1OC2(C)C (stereo partly drawn) [Compound 1.11, 2-((6aR,10aR)-1-hydroxy-6,6,9-trimethyl-6a,7,10,10a-tetrahydro-6H-benzo[c]chromen-3-yl)propanoic acid] |  | > 10000 | > 10000 | > 10000 |  |  | 
CC1=CCC2[C@@H](C1)c1c(O)cc(C(C)(C)C(=O)OCCCCC#N)cc1OC2(C)C (stereo in doubt) [Compound 1.3, 4-cyanobutyl-2-((6aS, 10aR)-6a, 7, 10, 10a-tetrahydro-1-hydroxy-6,6,9-trimethyl-6H-benzo[c]chromen-3-yl)-2-methylpropanoate] | 40 | 0.7 |  |  |  |  | 0.8
CCOC(=O)C(C)(C)c1cc(O)c(-c2cc(C)cc(C)c2)c(O)c1 [Compound 4.4, Ethyl 2-(2,6-dihydroxy-3′,5′-dimethylbiphenyl-4-yl)-2-methylpropanoate] |  | 941 | 36 | 48.8 |  |  | 
CCCCCCC1(c2cc(O)c3c(c2)OC(C)(C)[C@@H]2CC=C(C)C[C@@H]32)CC(=O)O1 (stereo partly drawn) [Compound 1.23, 4-hexyl-4-((6aR,10aR)-1-hydroxy-6,6,9-trimethyl-6a,7,10,10a-tetrahydro-6H-benzo[c]chromen-3-yl)oxetan-2-one] |  |  |  |  | 15.9 | 40.7 | 55.5
CC1=CC[C@H]2[C@@H](C1)c1c(O)cc(C(C)(C)C(=O)OCCCCCBr)cc1OC2(C)C [Compound 1.5, 5-bromopentyl-2-((6aS,10aR)-6a,7,10,10a-tetrahydro-1-hydroxy-6,6,9-trimethyl-6H-benzo[c]chromen-3-yl)-2-methylpropanoate] |  | 1.2 | 0.5 | 0.6 |  |  | 
CCCCOC(=O)C(C)(C)c1cc(O)c2c(c1)OC(C)(C)[C@H]1CC=C(C)C[C@@H]21 [Compound 1.4, Butyl-2-((6aS, 10aR)-6a, 7, 10, 10a-tetrahydro-1-hydroxy-6,6,9-trimethyl-6H-benzo[c]chromen-3-yl)-2-methylpropanoate] |  | 0.6 | 0.6 | 0.7 |  |  | 
